The subject of data set [1] is orthotopic PAN02 pancreatic tumors. The data set is described as follows: Orthotopic PAN02 pancreatic tumor study in lean and obese mice. The class given is in vivo, mouse. The following applies: for gene and protein expression of activated PSC marker αSMA in tumors: losartan 90 mg/Kg i.p. every day. An excerpt:
(§1) Wild-type (WT) C57BL/6 and FVB male mice were originally obtained from Jackson Laboratory (The Jackson Laboratory, Bar Harbor, Me.) and bred and maintained in our defined-flora colony. KPC (Ptf1-Cre/LSL-KRAS^G12D/p53-R172H) and iKRAS (p48-Cre;R26-rtTa-IRES-EGFP;TetO-Kras^G12D mice) mice were obtained. To generate an obese model, mice (6-week old) were given either 10% or a 60% fat diet (D12450J and D12492, Research Diets, New Brunswick, N.J.) for 10 weeks (or until tumor collection in spontaneous models), as previously described (Surwit, R. S., et al. Metabolism: clinical and experimental 44, 645-651 (1995)). For implanted tumor experiments, AK4.4 cells (KrasG12D and p53 ? /) were isolated from mice generating spontaneous pancreatic tumors (Ptf1-Cre/LSL-Kras^G12D/p53Lox/ ? ) (Bardeesy, N., et al. Proc Natl Acad Sci USA 103, 5947-5952 (2006)). Orthotopic pancreatic tumors were generated by implanting a small piece (1 mm^3) of viable tumor tissue (from a source tumor in a separate animal) into the pancreas of a 6-8 week-old male lean or obese FVB (AK4.4 model) or C57BL/6 (PAN02 model) mouse. PAN02 tumor chunks and AK4.4 cells were authenticated by IDEXX laboratories. (PAN02: IDEXX RADIL Case #22366-2013. AK4.4: IDEXX RADIL Case #27818-2014). For AT1- and AT2-knockout studies, tumors were implanted into the pancreas of a 6-8-week-old male lean or obese C57BL/6, agtr1a−/− or agtr2−/− mice. With exception of PAN02, these orthotopically grown pancreatic cancers are characterized by a dense collagenous stroma, a hallmark of pancreatic cancer desmoplasia (Diop-Frimpong, B., et al. Proc Natl Acad Sci USA 108, 2909-2914 (2011)).
(§2) For all experiments unless specified below, mice bearing orthotopic PAN02 or AK4.4 pancreatic tumors were randomized into treatment groups (or no treatment) and tumors were collected at day 21 after implantation. For tumor growth study with chemotherapy, mice were divided into treatment groups 7 days after implantation, and treated with either 5-FU (30 mg/Kg i.v. every 4 days) or an equal volume of saline by intravenous injection on days 7, 11 and 15 after implantation, with tumors collected at day 19. For tumor growth study with losartan, mice were treated with losartan (90 mg/Kg i.p. every day) or an equal volume of PBS intraperitoneally starting on day 5 after implantation and for the duration of the study. In the combined experiment of losartan and 5-FU, the same protocol was used for each drug as described above. TAN depletion by a Ly6G specific inhibitor (BioExcell, 4 mg/Kg i.p. every 2 days) was administered to PAN02 bearing animals starting at day 1 or day 7, and to AK4.4 bearing animals at day 7. IL-1β inhibition (MM425B, Endogen/Pierce Biotechnology, 2 mg/Kg i.p. every 2 days) was administered to PAN02 bearing animals starting at day 7. At the completion of the study, adipose tissue and tumor samples were collected, weighed, and processed for further analysis. When spontaneous models were used, tumors were collected when palpable.
(§3) To assess obesity-induced ECM remodeling and fibrosis fibrillar collagen accumulation was quantified using second harmonic generation imaging, and collagen-I content, hyaluronan, MMPs levels and fibrosis related signaling pathways (e.g. AT-I, CTGF, TSP 1, TGFβ1, and P38/ERK signaling) were measured by rtPCR array, immunohistochemistry and immunoblotting. The topographical distribution and density of cancer-associated fibroblasts (CAFs) in tumor sections was detected by staining for αSMA activated fibroblast marker. Vessel morphology and perfusion was assessed using standard histological analyses.
Mice bearing orthotopic PAN02 were injected with 30 mg/kg of 5-FU 3 weeks after tumor implantation, administered retro-orbitally 30 min prior to tumor removal. The tissue was dabbed of excess blood and then snap-frozen in liquid nitrogen for analysis. […]

Data set [2] has as its system orthotopic AK4.4 pancreatic tumors. The data set is described as follows: Orthotopic AK4.4 pancreatic tumor study in lean and obese mice. The data set is classed as in vivo, mouse. The note with it: for gene and protein expression of activated PSC marker αSMA in tumors: losartan 90 mg/Kg i.p. every day.
Excerpt: as §1, §2, §3
Tumor-bearing mice were perfused through intracardiac injection of PBS and sacrificed. Pancreatic tumor tissues were harvested, minced, and digested at 37° C. for 1 h with DMEM containing collagenase type 1A (1.5 mg/mL), hyaluronidase (1.5 mg/mL), and DNase (2 mg/mL). The digestion mixtures were filtered through 70-μm cell strainers. […]

Setting [3] is: lean mice, 3 doses of 5-FU 30 mg/kg BW q4d.
Setting [4] is: obese mice, 3 doses of 5-FU 30 mg/kg BW q4d.
[5] abbreviates: obese mice, effects only modest in lean animals.
Setting [6] is: obese, but not lean mice, losartan.

Regarding `O=c1[nH]cc(F)c(=O)[nH]1` [Example 5-FU, 5-fluorouracil], the “reduction in tumor weight as compared to untreated controls” value in data set [1] (setting [3]) and in data set [2] (setting [3]) was 50% throughout. Moreover, the “effect on tumor weight” value in data set [1] (setting [4]) and in data set [2] (setting [4]) was “did not significantly reduce tumor weight” in each case. Moreover, the “delivery of 5-FU to tumors” value in data set [1] (tumors in obese mice versus lean, 30 mg/kg, 30 min prior to tumor removal) is listed as “decreased”.

Turning to `CCCCc1nc(Cl)c(CO)n1Cc1ccc(-c2ccccc2-c2nn[nH]n2)cc1` [losartan], the “gene and protein expression of activated PSC marker αSMA in tumors” value in data set [1] (lean mice) was “only mildly”; in data set [1] (obese mice) it was “reduce”; in data set [2] (lean mice), “only mildly”; in data set [2] (obese mice) it was “reduce”. Moreover, the “response to chemotherapy with AT1 blockade” value was “enhanced” in data set [1] (obese but not lean animals, losartan plus 5-FU) and “improved therapeutic response in tumors to a greater extent” in data set [2] (obese mice, somewhat effective in the lean setting, losartan plus 5-FU). In addition, the “tumor weight, losartan monotherapy” value in data set [1] (obese mice) and in data set [2] (obese mice) was “reduced tumor weight” throughout. The “obesity-induced abnormal expression of desmoplasia-related markers and AT1 downstream signaling” value in data set [1] (setting [5]) and in data set [2] (setting [5]) was “normalized” in each case. Moreover, the “gene and protein expression of collagen-I and fibrillar collagen in tumors” value in data set [1] (setting [6]) and in data set [2] (setting [6]) was “decrease” throughout.

The record behind these values is patent US11433136B2, “Polyacetal polymers, conjugates, particles and uses thereof” (THE GENERAL HOSPITAL CORPORATION, priority 2015, dated 2022).
